Measurements from PubChem BioAssay (NCI).
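96-well plates; 48 h exposure; 5 concentrations. Endpoints by linear interpolation between flanking doses. Not reached: highest tested concentration assigned. At the TGI there is no net growth.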

How the values were obtained:
Assay in all cases: NCI anticancer screen, dose series, 48 h
BT-549 breast = system: BT-549 breast
OVCAR-4 ovarian = system: OVCAR-4 ovarian
MCF7 breast = system: MCF7 breast
OVCAR-5 ovarian = system: OVCAR-5 ovarian
A498 renal = system: A498 renal
SK-MEL-5 melanoma = system: SK-MEL-5 melanoma
EKVX NSCLC = system: EKVX NSCLC
SK-MEL-2 melanoma = system: SK-MEL-2 melanoma
NCI-H522 lung = system: NCI-H522 lung
HCT-116 colon = system: HCT-116 colon
HOP-62 NSCLC = system: HOP-62 NSCLC
MALME-3M melanoma = system: MALME-3M melanoma
HS 578T breast = system: HS 578T breast
A549 NSCLC = system: A549 NSCLC
786-0 renal = system: 786-0 renal
CCRF-CEM leukemia = system: CCRF-CEM leukemia
PC-3 prostate = system: PC-3 prostate
SK-OV-3 ovarian = system: SK-OV-3 ovarian
TK-10 renal = system: TK-10 renal
OVCAR-3 ovarian = system: OVCAR-3 ovarian
UO-31 renal = system: UO-31 renal
HT29 colon = system: HT29 colon
T-47D breast = system: T-47D breast
HL-60(TB) leukemia = system: HL-60(TB) leukemia
HOP-92 NSCLC = system: HOP-92 NSCLC
HCT-15 colon = system: HCT-15 colon
U251 CNS = system: U251 CNS
OVCAR-8 ovarian = system: OVCAR-8 ovarian
CAKI-1 renal = system: CAKI-1 renal
SW-620 colon = system: SW-620 colon
SK-MEL-28 melanoma = system: SK-MEL-28 melanoma
HCC-2998 colon = system: HCC-2998 colon
COLO 205 colon = system: COLO 205 colon
UACC-257 melanoma = system: UACC-257 melanoma
NCI-H460 lung = system: NCI-H460 lung
MDA-MB-231 breast = system: MDA-MB-231 breast
UACC-62 melanoma = system: UACC-62 melanoma
IGROV1 ovarian = system: IGROV1 ovarian
SF-539 CNS = system: SF-539 CNS
RXF 393 renal = system: RXF 393 renal
MDA-N = system: MDA-N
NCI-H226 lung = system: NCI-H226 lung
SNB-75 CNS = system: SNB-75 CNS
MDA-MB-435 = system: MDA-MB-435
NCI-H23 lung = system: NCI-H23 lung
SN12C renal = system: SN12C renal
KM12 colon = system: KM12 colon
SF-268 CNS = system: SF-268 CNS
NCI/ADR-RES ovarian = system: NCI/ADR-RES ovarian
SF-295 CNS = system: SF-295 CNS
M14 melanoma = system: M14 melanoma
LOX IMVI melanoma = system: LOX IMVI melanoma
DU-145 prostate = system: DU-145 prostate

COc1ccc(COCC[C@H](C)OC2OC(CO[Si](C)(C)C(C)(C)C)C(OC(=O)CCCN=[N+]=[N-])C(OC(=O)CCCN=[N+]=[N-])C2OC(=O)CCCN=[N+]=[N-])cc1 (stereo partly drawn)
TGI (BT-549 breast): 68.9 µM | TGI (OVCAR-4 ovarian): > 100 µM | TGI (MCF7 breast): > 100 µM | TGI (OVCAR-5 ovarian): > 100 µM | TGI (A498 renal): > 100 µM | TGI (SK-MEL-5 melanoma): 25.4 µM | TGI (EKVX NSCLC): > 100 µM | TGI (SK-MEL-2 melanoma): > 100 µM | TGI (NCI-H522 lung): > 100 µM | TGI (HCT-116 colon): > 100 µM | TGI (HOP-62 NSCLC): > 100 µM | TGI (MALME-3M melanoma): > 100 µM | TGI (HS 578T breast): > 100 µM | TGI (A549 NSCLC): > 100 µM | TGI (786-0 renal): > 100 µM | TGI (CCRF-CEM leukemia): > 100 µM | TGI (PC-3 prostate): > 100 µM | TGI (SK-OV-3 ovarian): > 100 µM | TGI (TK-10 renal): > 100 µM | TGI (OVCAR-3 ovarian): > 100 µM | TGI (UO-31 renal): 66.2 µM | TGI (HT29 colon): 62.7 µM | TGI (T-47D breast): > 100 µM | TGI (HL-60(TB) leukemia): 41.5 µM | TGI (HOP-92 NSCLC): > 100 µM | TGI (HCT-15 colon): 88.7 µM | TGI (U251 CNS): > 100 µM | TGI (OVCAR-8 ovarian): 75.8 µM | TGI (CAKI-1 renal): > 100 µM | TGI (SW-620 colon): > 100 µM | TGI (SK-MEL-28 melanoma): > 100 µM | TGI (HCC-2998 colon): > 100 µM | TGI (COLO 205 colon): 83.1 µM | TGI (UACC-257 melanoma): > 100 µM | TGI (NCI-H460 lung): > 100 µM | TGI (MDA-MB-231 breast): > 100 µM | TGI (UACC-62 melanoma): > 100 µM | TGI (IGROV1 ovarian): > 100 µM | TGI (SF-539 CNS): > 100 µM | TGI (RXF 393 renal): > 100 µM | TGI (MDA-N): > 100 µM | TGI (NCI-H226 lung): 89.2 µM | TGI (SNB-75 CNS): 59.9 µM | TGI (MDA-MB-435): > 100 µM | TGI (NCI-H23 lung): > 100 µM | TGI (SN12C renal): > 100 µM | TGI (KM12 colon): > 100 µM | TGI (SF-268 CNS): > 100 µM | TGI (NCI/ADR-RES ovarian): 60.9 µM | TGI (SF-295 CNS): > 100 µM | TGI (M14 melanoma): > 100 µM | TGI (LOX IMVI melanoma): > 100 µM | TGI (DU-145 prostate): > 100 µM
